For assay [1], the system named is KMS-12-BM. Also noted: method as in PMID 20088798. The conditions noted are these: sister cell line of KMS-12-PE, read-out: IC50 inhibition of proliferation; cited from earlier work.
Assay [2] deals with other MM cell lines. Also noted: method as in PMID 20088798. The conditions noted are these: cited from earlier work.
Assay [3] deals with KMS-12-PE cells. Briefly: Proliferation, [3H]-thymidine uptake, KMS-12-PE. The conditions noted are these: for mean percentage of proliferation ± SE: KMS-12 PE, relative to control; for mean percentage of proliferation ± SE / pIC50: 72 h; for pIC50: KMS-12-PE, 95% confidence interval in brackets, read-out: IC50 inhibition of proliferation. Type of assay: cell-based. How it is done:
(§1) Acute myeloid leukemia cell line HL-60 and multiple myeloma cell lines AMO-1 and KMS-12-PE were obtained from the German Collection of Microorganisms and Cell Cultures (DSMZ), Braunschweig, Germany, and non-tumorigenic stromal cell line HS-5 was acquired from the American Type Culture Collection (ATCC, Manassas, VA, USA). All cell lines were cultured in RPMI 1640 medium without phenol red (Pan Biotech, Aidenbach, Germany), supplemented with 2 mM glutamine, 100 U/mL penicillin, 100 µg/mL streptomycin (Sigma-Aldrich, St. Louis, MO, USA), and 10% fetal bovine serum (FBS Maximus, Catus Biotech GmbH, Tutzing, Germany) at 37 °C in a humidified atmosphere of 5% CO2/95% air. Cells were fed twice weekly. Logarithmically growing cells were resuspended at 1 × 10^5 cells/mL, plated in triplicate in round-bottom 96-well plates (100 µL per well; Falcon, Becton Dickinson, Franklin Lakes, NJ, USA), and incubated at 37 °C in 5% CO2/95% air for 2 h. Subsequently, the compounds were adjusted in the cell culture medium to reach the final concentrations in a total volume of 150 µL and incubated for an additional 72 h. Cell proliferation was assessed by [^3H]-thymidine uptake. Each well was exposed to 2 µCi [^3H]-thymidine (Hartmann Analytic, Braunschweig, Germany) during the final 12–16 h of incubation. Cells were harvested using a semi-automated device, and [^3H]-thymidine incorporation (expressed in counts per minute, cpm) was measured with a scintillation counter (MicroBeta TriLux, PerkinElmer, Waltham, MA, USA). Metabolic activity was assessed by resazurin staining. Resazurin (Carl Roth, Karlsruhe, Germany) was dissolved in distilled water at a concentration of 0.1 mg/mL, and 15 µL of this solution was added to each well, followed by a 2 h incubation at 37 °C. Relative fluorescence units (RFUs) were measured using a Synergy H1 plate reader equipped with a 560 nm excitation/590 nm emission filter set (BioTek; Agilent, Santa Clara, CA, USA). Proliferation and metabolic activity in the absence of compounds were defined as 100% (control), and the values for compound-treated samples were expressed as percentages relative to the control. Selectivity indices were calculated by dividing the IC50 value of each compound against HS-5 cells through the IC50 values against the investigated cell lines.
(§2) The Wilcoxon Rank Sum Test was used to analyze proliferation and metabolic activity in the absence and presence of varying compound concentrations (NCSS 2007 software, version 07.1.2, Kaysville, UT, USA). A p-value < 0.05 was considered statistically significant. IC50 values were calculated using GraphPad Prism 10.1.2. This software reports 95% confidence intervals instead of standard errors. […] Nonetheless, the figures clearly illustrate the IC50 values due to the narrow concentration range tested.

In assay [4] the test system is MOLM-13 cells. Briefly: Proliferation, [3H]-thymidine uptake, MOLM-13. The format is cell-based. The conditions noted are these: for mean percentage of proliferation ± SE: 72 h, relative to control. How it is done: [The source words this procedure for another cell line and reports this cell line under the same test.] as §1, §2
In assay [5] the test system is AMO-1 cells. Briefly: Proliferation, [3H]-thymidine uptake, AMO-1. The format is cell-based. The conditions noted are these: for mean percentage of proliferation ± SE: 72 h, relative to control. The method, then: as §1, §2
The subject of assay [6] is MOLM-13 cells. In words: Metabolic activity, resazurin staining, MOLM-13. The format is cell-based. The conditions noted are these: for Metabolic activity, mean percentage ± SE: 72 h, relative to control. The method, then:
[The source words this procedure for another cell line and reports this cell line under the same test.] as §1, §2
(§3) Proliferation inhibition often leads to cell death. Therefore, the cytotoxic activity of the compounds was further evaluated using a modified 3-(4,5-dimethylthiazol-2-yl)-2,5-diphenyltetrazolium bromide (MTT) assay, the resazurin (Alamar Blue) assay. Metabolically active cells reduce the non-fluorescent dye resazurin to the fluorescent dye resorufin via mitochondrial reductase activity, which correlates with cell viability. In the first step the metabolic activity of the four isolated flavonoids was investigated, showing a dose-dependent reduction, but to a much lower extent than in the proliferation assays (Table A2). In fact, only 7,3′,4′-trimethoxymyricetin (2) inhibited the metabolic activity of all four cell lines by more than 50% at a concentration of 100 µM.
For orientation: Resazurin is reduced to fluorescent resorufin, in cell work by metabolically active cells.

Assay [7] has as its system AMO-1 cells. In words: Metabolic activity, resazurin staining, AMO-1. The format is cell-based. The conditions noted are these: for Metabolic activity, mean percentage ± SE: 72 h, relative to control. The method, then: as §1, §2, §3
The subject of assay [8] is KMS-12-PE cells. In words: Metabolic activity, resazurin staining, KMS-12-PE. The format is cell-based. The conditions noted are these: for Metabolic activity, mean percentage ± SE: KMS-12 PE, relative to control. The method, then: as §1, §2, §3
In assay [9] the test system is HL-60 cells. In words: Metabolic activity, resazurin staining, HL-60. Type of assay: cell-based. The conditions noted are these: for Metabolic activity, mean percentage ± SE: 72 h, relative to control. How it is done:
as §1, §2, §3

For assay [10], the system named is HL-60 cells. In words: Proliferation, [3H]-thymidine uptake, HL-60. The format is cell-based. The conditions noted are these: for mean percentage of proliferation ± SE: 72 h, relative to control. The method, then: as §1, §2
Assay [11] has as its system KB cell line. Also noted: method as in PMID 17089326. The conditions noted are these: cited from earlier work.
Assay [12] concerns HS-5 cells. In words: Metabolic activity, resazurin staining, non-malignant HS-5. Type of assay: cell-based. The conditions noted are these: HS5, HS-5 (non-malignant), 72 h, 95% confidence interval in brackets, read-out: IC50 inhibition of metabolic activity. How it is done: as §1, with “Subsequently, the compounds were adjusted in the cell culture medium to reach the final concentrations in a total volume of 150 µL and incubated for an additional 72 h.” left out, “Each well was exposed to 2 µCi [^3H]-thymidine (Hartmann Analytic, Braunschweig, Germany) during the final 12–16 h of incubation.” left out, “Resazurin (Carl Roth, Karlsruhe, Germany) was dissolved in distilled water at a concentration of 0.1 mg/mL, and 15 µL of this solution was added to each well, followed by a 2 h incubation at 37 °C.” left out
(§4) The Wilcoxon Rank Sum Test was used to analyze proliferation and metabolic activity in the absence and presence of varying compound concentrations (NCSS 2007 software, version 07.1.2, Kaysville, UT, USA). […] IC50 values were calculated using GraphPad Prism 10.1.2. […]

The test system of assay [13] is HS-5 cells. Briefly: Proliferation, [3H]-thymidine uptake, non-malignant HS-5. The conditions noted are these: HS5; HS-5 (non-malignant), 72 h, 95% confidence interval in brackets; read-out: IC50 inhibition of proliferation. The format is cell-based. How it is done:
as §1, with “Subsequently, the compounds were adjusted in the cell culture medium to reach the final concentrations in a total volume of 150 µL and incubated for an additional 72 h.” left out, “Each well was exposed to 2 µCi [^3H]-thymidine (Hartmann Analytic, Braunschweig, Germany) during the final 12–16 h of incubation.” left out, “Resazurin (Carl Roth, Karlsruhe, Germany) was dissolved in distilled water at a concentration of 0.1 mg/mL, and 15 µL of this solution was added to each well, followed by a 2 h incubation at 37 °C.” left out
as §4

Assay [14] concerns BC cell line. Also noted: method as in PMID 17089326. The conditions noted are these: cited from earlier work.

This is an account of results in paper PMC12388523, “Flavonoids and Sesquiterpene Lactones from Lychnophora ericoides (Arnica-Do-Cerrado) and Their In Vitro Effects on Multiple Myeloma and Acute Myeloid Leukemia” (Metabolites, 2025).

pIC50: −log10 of the molar value. A value given as a limit tells only on which side of the number the result lay.

With `Nc1cccc2c1CN(C1CCC(=O)NC1=O)C2=O` (stereo not shown) [lenalidomide], the pIC50 in assay [1] was 7.24. Besides, in assay [2], the “IC50 concentrations (in words)” value is given as “high µM range”.
As to `COc1cc(O)c2c(=O)c(OC)c(-c3ccc(O)c(O)c3)oc2c1` [Compound 4, 3,7-di-O-methylquercetin], the “mean percentage of proliferation ± SE” value in [3] (10 µM) is reported as 89.0 ± 5.2%; in assay [3] (25 µM), 80.9 ± 3.2 %; in assay [3] (50 µM) it was 50.4 ± 5.2 %; in assay [3] (100 µM) it was 29.7 ± 6.0 %; in assay [4] (MOLM-13, 10 µM), 42.3 ± 11.2 %; in [4] (MOLM-13, 25 µM), 32.6 ± 5.5 %. Further, the “mean percentage of proliferation ± SE” value in assay [4] (MOLM-13, 50 µM) is on record as 13.1 ± 2.7 %; in assay [4] (MOLM-13, 100 µM), 8.8 ± 3.1 %; in [5] (AMO-1, 10 µM) it was 73.3 ± 11.4 %; in assay [5] (AMO-1, 25 µM), 57.5 ± 9.2 %; in assay [5] (AMO-1, 50 µM) it was 29.7 ± 4.1 %; in [5] (AMO-1, 100 µM), 19.2 ± 5.1 %. For the same molecule, the “mean percentage of proliferation ± SE” value in assay [10] (HL-60, 10 µM) is 45.9 ± 8.9 %; in assay [10] (HL-60, 25 µM), 37.6 ± 7.7 %; in assay [10] (HL-60, 50 µM), 23.3 ± 6.5 %; in assay [10] (HL-60, 100 µM), 18.5 ± 4.0 %. Also, the inhibition (in general, how much of the control response was suppressed) at 10 µM in assay [4] (Homo sapiens, MOLM-13, 10 µM) is more than 50%; in assay [10] (Homo sapiens, HL-60, 10 µM) it was more than 50%. Moreover, the “Metabolic activity, mean percentage ± SE” value in assay [6] (MOLM-13, 10 µM) came to 81.1 ± 4.2 %; in assay [6] (MOLM-13, 25 µM), 77.9 ± 4.3 %; in assay [6] (MOLM-13, 50 µM), 63.6 ± 6.4 %; in assay [6] (MOLM-13, 100 µM), 61.7 ± 6.9 %; in [7] (AMO-1, 10 µM), 91.5 ± 9.9%; in assay [7] (AMO-1, 25 µM) it was 70.2 ± 10.8 %. For the same molecule, the “Metabolic activity, mean percentage ± SE” value in assay [7] (AMO-1, 50 µM) is listed as 57.1 ± 10.5 %; in assay [7] (AMO-1, 100 µM), 46.9 ± 11.7 %; in assay [8] (10 µM, 72 h) it was 110.1 ± 10.2%; in [8] (25 µM, 72 h), 103.0 ± 9.9%; in [8] (50 µM, 72 h), 92.4 ± 8.7%; in assay [8] (100 µM, 72 h), 82.4 ± 7.7%. Also, the “Metabolic activity, mean percentage ± SE” value came out at 86.1 ± 6.1 % in assay [9] (HL-60, 10 µM); 80.8 ± 5.9 % in assay [9] (HL-60, 25 µM); 69.8 ± 5.1 % in assay [9] (HL-60, 50 µM); 69.7 ± 5.5 % in [9] (HL-60, 100 µM). In addition, the “inhibition of metabolic activity” value in assay [7] (AMO-1, 100 µM) is given as “induced antimetabolic activity”.
Regarding `C=C1C(=O)O[C@@H]2/C=C(/CO)C3=CC(=O)[C@@](C)(C[C@H](OC(=O)/C(C)=C\C)[C@@H]12)O3` [Compound 6, centratherin], the pIC50 was 5.66 in assay [3] (Homo sapiens); 5.74 in [3]; 5.96 in assay [4] (Homo sapiens, MOLM-13, 72 h, 95% confidence interval in brackets, read-out: IC50 inhibition of proliferation); more than 6.52 in assay [11]; 5.66 in assay [5] (Homo sapiens, AMO1, 72 h, AMO-1, 72 h, 95% confidence interval in brackets, read-out: IC50 inhibition of proliferation); 5.35 in assay [12]. Also, the pIC50 was 5.89 in assay [6] (Homo sapiens, MOLM-13, 72 h, resazurin, 95% confidence interval in brackets, read-out: IC50 inhibition of metabolic activity); 5.62 in [7] (Homo sapiens, AMO1, AMO-1, 72 h, resazurin, 95% confidence interval in brackets, read-out: IC50 inhibition of metabolic activity); 5.60 in assay [13]; 5.57 in assay [8] (Homo sapiens, KMS-12-PE, 72 h, resazurin, 95% confidence interval in brackets, read-out: IC50 inhibition of metabolic activity); more than 6.52 in assay [14]; 5.72 in assay [9] (Homo sapiens, HL-60, 72 h, resazurin, 95% confidence interval in brackets, read-out: IC50 inhibition of metabolic activity). Moreover, in assay [10] (Homo sapiens, HL-60, 72 h, 95% confidence interval in brackets, read-out: IC50 inhibition of proliferation), the pIC50 was 5.92. Besides, the “Selectivity index (proliferation)” value in [3] (IC50 HS-5 / IC50 KMS-12-PE) is listed as 1.4; in assay [4] (IC50 HS-5 / IC50 MOLM-13) it was 2.2; in [5] (IC50 HS-5 / IC50 AMO-1), 1.1; in assay [10] (IC50 HS-5 / IC50 HL-60), 2.1. The “Selectivity index (metabolic activity)” value was determined as 3.5 in [6] (IC50 HS-5 / IC50 MOLM-13), 1.9 in [7] (IC50 HS-5 / IC50 AMO-1), 1.6 in [8] (IC50 HS-5 / IC50 KMS-12-PE) and 2.4 in assay [9] (IC50 HS-5 / IC50 HL-60).
